{
  "source": "patent US11331341B2",
  "about": "“Combination therapies that enhance antimicrobial/anticancer activities” (International Business Machines Corporation, priority 2020, dated 2022)",
  "key": {"[1]": {"tested_on": "MCR-1-positive E. coli strains", "assay": "Checkerboard assay / MIC, MCR-1-positive colistin-resistant E. coli", "format": "cell-based", "conditions": "for MIC against MCR-1-positive E. coli: alone", "source_text": "Repetitive description of like elements employed in other embodiments described herein is omitted for sake of brevity.\nPlasmid-mediated colistin-resistance has been reported in Gram-negative bacteria, which resulted from a MCR-1 enzyme that catalyzes the transfer of phosphoethanolamine to lipid A; thereby rendering the membrane more electropositive."}, "[2]": {"tested_on": "therapeutic-susceptible MCF7 cancer cells", "assay": "Cytotoxicity against therapeutic-susceptible MCF7", "format": "cell-based", "conditions": "Homo sapiens", "protocol": "(§1) Further, Table 2 regards anticancer activity against therapeutic-susceptible MCF7 cancer cells with an incubation time of 48 hours. For the combination therapies, the cancer cells were treated with the antimicrobial polymer for 4 hours followed by treatment with doxorubicin for 44 hours. Also, Table 3 regards anticancer activity against therapeutic-resistant MCF7 cancer cells with an incubation time of 48 hours. For the combination therapies, the cancer cells were treated with the antimicrobial polymer for 4 hours followed by treatment with doxorubicin for 44 hours."}, "[3]": {"tested_on": "BT474 cell line", "assay": "cells", "conditions": "Homo sapiens, BT-474, read-out: absolute IC50 in treating BT474", "source_text": "Cytotoxicity graph 2100 regards treating BT474 solely with doxorubicin."}, "[4]": {"tested_on": "therapeutic-resistant MCF7/ADR cell line", "assay": "Cytotoxicity against therapeutic-resistant MCF7/ADR", "format": "cell-based", "conditions": "Homo sapiens", "protocol": "as §1"}, "[5]": {"tested_on": "therapeutic-resistant SK-OV-3-TR cell line", "assay": "Cytotoxicity against SK-OV-3-TR", "format": "cell-based", "conditions": "SKOV3TR; FIG. 25; read-out: absolute IC50 in treating SK-OV-3-TR", "excerpt": "Cytotoxicity graph 2500 regards treating SK-OV-3-TR solely with paclitaxel. […] Cytotoxicity graph 2502 regards treating SK-OV-3-TR solely with the example quaternary ammonium functionalized antimicrobial polymer 1402 (e.g., wherein “n” equals 21). […] Cytotoxicity graph 2504 regards treating SK-OV-3-TR solely with the example guanidinium functionalized antimicrobial polymer 1404 (e.g., wherein “m” equals 20). […] Cytotoxicity graph 2506 regards treating SK-OV-3-TR with a combination therapy of paclitaxel with 0.5 IC50 of the example quaternary ammonium functionalized antimicrobial polymer 1402 (e.g., wherein “n” equals 21). […] Cytotoxicity graph 2508 regards treating SK-OV-3-TR with a combination therapy of paclitaxel with 0.5 IC50 of example guanidinium functionalized antimicrobial polymer 1404 (e.g., wherein “m” equals 20)."}, "[6]": {"conditions": "MCF7, FIG. 22 and FIG. 24, read-out: absolute IC50 in treating MCF7"}, "[7]": {"conditions": "NCI/ADR-RES, FIG. 23 and FIG. 24, read-out: absolute IC50 in treating MCF7/ADR"}},
  "note": "Read-outs that look alike come from different tables or passages of the source.",
  "data": [
    {"compound": "colistimethate sodium", "values": [
      {"measurement": "MIC against MCR-1-positive E. coli", "setting": "[1]; first of two MCR-1-positive E. coli strains", "result": 15.6, "unit": "µg/mL"},
      {"measurement": "MIC against MCR-1-positive E. coli", "setting": "[1]; second of two MCR-1-positive E. coli strains", "result": 31.3, "unit": "µg/mL"}
    ]},
    {"compound": "colistin", "values": [
      {"measurement": "colistin MIC against MCR-1 colistin-resistant bacteria", "setting": "[1]; with pQuat_20 at ½×MIC", "result": "< 0.49", "unit": "µg/mL"}
    ]},
    {"compound": "COc1cccc2c1C(=O)c1c(O)c3c(c(O)c1C2=O)C[C@@](O)(C(=O)CO)C[C@@H]3O[C@H]1C[C@H](N)[C@H](O)[C@H](C)O1", "note": "[DOX, doxorubicin]", "values": [
      {"measurement": "IC50", "setting": "[2]; [6]", "result": 0.15, "unit": "µg/mL"},
      {"measurement": "IC50", "setting": "[2]; MCF7, incubation 48 hours, combinations: polymer for 4 hours followed by doxorubicin for 44 hours, read-out: Absolute IC50", "result": 0.054, "unit": "µg/mL"},
      {"measurement": "IC50", "setting": "[3]", "result": 8.42, "unit": "µg/mL"},
      {"measurement": "IC50", "setting": "[4]; [7]", "result": 139, "unit": "µg/mL"},
      {"measurement": "IC50", "setting": "[4]; therapeutic-resistant MCF7, incubation 48 hours, combinations: polymer for 4 hours followed by doxorubicin for 44 hours, read-out: Absolute IC50", "result": 375, "unit": "µg/mL"}
    ]},
    {"compound": "CC(=O)O[C@H]1C(=O)[C@@]2(C)[C@H]([C@H](OC(=O)c3ccccc3)[C@]3(O)C[C@H](OC(=O)[C@H](O)[C@@H](NC(=O)c4ccccc4)c4ccccc4)C(C)=C1C3(C)C)[C@]1(OC(C)=O)CO[C@@H]1C[C@@H]2O", "note": "[paclitaxel]", "values": [
      {"measurement": "IC50", "setting": "[2]; [6]", "result": 19.7, "unit": "µg/mL"},
      {"measurement": "IC50", "setting": "[5]", "result": 27.4, "unit": "µg/mL"},
      {"measurement": "IC50", "setting": "[4]; [7]", "result": 5150, "unit": "µg/mL"}
    ]}
  ]
}
